Data reported in US7932262B2 (Novartis AG, priority 2006, dated 2011).

Experiments:
[1] = tested on: PC-3 cells; test: Cell Proliferation Assay (Cell Titer Glo), PC-3 cell line; format: cell-based; settings: Homo sapiens, PC-3, Cell Proliferation Assay, PC3; read-out: CPEC50 PC3
Outline: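 Cell Titer Glo luminescence, read after fresh medium replaced the dosing medium, gave viability of PC-3 cells plated at 1000 cells/well. Compounds, 1:3 serially diluted in DMSO at 500× and then in medium, were added after 3-5 h adhesion and incubated 3 days at 37° C.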

[2] = biological target: T1, PDK1 kinase (Homo sapiens, UniProt O15530); test: PDK1 Kinase Alpha Screen Assay; format: biochemical; settings: PDK1 Kinase Alpha Screen Assay; read-out: PDK1 IC50
T1 sequence (O15530 1-556): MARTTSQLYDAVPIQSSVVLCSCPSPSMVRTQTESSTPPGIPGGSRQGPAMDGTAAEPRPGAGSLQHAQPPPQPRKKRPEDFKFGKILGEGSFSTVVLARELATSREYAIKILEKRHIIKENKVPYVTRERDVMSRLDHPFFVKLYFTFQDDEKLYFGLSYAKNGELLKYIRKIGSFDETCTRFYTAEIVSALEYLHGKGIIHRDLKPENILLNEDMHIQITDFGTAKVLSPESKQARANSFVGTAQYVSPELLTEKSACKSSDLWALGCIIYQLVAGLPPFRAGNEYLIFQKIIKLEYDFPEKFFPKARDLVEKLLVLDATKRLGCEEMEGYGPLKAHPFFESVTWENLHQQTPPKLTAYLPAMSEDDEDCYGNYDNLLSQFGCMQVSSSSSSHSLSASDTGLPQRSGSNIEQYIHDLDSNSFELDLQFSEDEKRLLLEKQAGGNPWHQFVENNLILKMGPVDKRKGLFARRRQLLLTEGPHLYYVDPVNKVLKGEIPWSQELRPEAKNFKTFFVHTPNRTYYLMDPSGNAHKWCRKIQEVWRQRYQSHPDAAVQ
Outline: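 Detection used AlphaScreen: streptavidin donor and protein A acceptor beads (25 μg/ml each) bridged by a phospho-(Ser/Thr) PKA substrate antibody binding phosphorylated peptide. Reaction: biotin-PDK1-4 peptide (50 nM), ATP (10 uM), PDK1 in pH 7.5 Tris/MgCl2/DTT buffer, 3-18 hours, EDTA-stopped.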

EC50 [1] [µM] | IC50 [2] [µM] | SMILES
< 5 | < 5 | O=C(c1ccc(Nc2ncc3cccc(OC4CCNCC4)c3n2)cc1)N1CCOCC1 [Compound 538, morpholino(4-(8-(piperidin-4-yloxy)quinazolin-2-ylamino)phenyl)methanone]
< 5 | < 5 | CC(=O)N1CCC(Oc2cccc3cnc(Nc4ccc(S(N)(=O)=O)cc4)nc23)CC1 [Compound 539, 4-(8-(1-acetylpiperidin-4-yloxy)quinazolin-2-ylamino)benzenesulfonamide]
< 5 | < 5 | CS(=O)(=O)N1CCC(Oc2cccc3cnc(Nc4ccc(S(N)(=O)=O)cc4)nc23)CC1 [Compound 540, 4-(8-(1-(methylsulfonyl)piperidin-4-yloxy)quinazolin-2-ylamino)benzenesulfonamide]
< 5 | < 5 | c1cc(Nc2ncc3cccc(OC4CCNCC4)c3n2)cc(N2CCOCC2)c1 [Compound 545, N-(3-morpholinophenyl)-8-(piperidin-4-yloxy)quinazolin-2-amine]
< 5 | < 5 | c1cc(OC2CCNCC2)c2nc(Nc3ccc(N4CCOCC4)cc3)ncc2c1 [Compound 546, N-(4-morpholinophenyl)-8-(piperidin-4-yloxy)quinazolin-2-amine]
5 to 10 | 5 to 10 | COc1ccc(NC(C)=O)cc1Nc1ncc2cccc(OC3CCNCC3)c2n1 [Compound 547, N-(4-methoxy-3-(8-(piperidin-4-yloxy)quinazolin-2-ylamino)phenyl)acetamide]
< 5 | < 5 | CN1CCN(c2ccc(Nc3ncc4cccc(OC5CCNCC5)c4n3)cc2)CC1 [Compound 548, N-(4-(4-methylpiperazin-1-yl)phenyl)-8-(piperidin-4-yloxy)quinazolin-2-amine]
< 5 | < 5 | CNS(=O)(=O)c1ccc(Nc2ncc3ccc(O)c(C4CCN(C(C)C)CC4)c3n2)cc1 [Compound 549]
5 to 10 | < 5 | c1cc(Nc2ncc3cccc(OC4CCNCC4)c3n2)cc(N2CCCC2)c1 [Compound 550, 8-(piperidin-4-yloxy)-N-(3-(pyrrolidin-1-yl)phenyl)quinazolin-2-amine]
5 to 10 | < 5 | CC(C)N1CCC(Oc2cccc3cnc(Nc4cccc(N5CCCC5)c4)nc23)CC1 [Compound 551, 8-(1-isopropylpiperidin-4-yloxy)-N-(3-(pyrrolidin-1-yl)phenyl)quinazolin-2-amine]
5 to 10 | 10 to 25 | CC(C)N1CCC(Oc2cccc3cnc(N4CCN(c5ccc(N)cc5)CC4)nc23)CC1 [Compound 552, 4-(4-(8-(1-isopropylpiperidin-4-yloxy)quinazolin-2-yl)piperazin-1-yl)aniline]
< 5 | < 5 | CC(C)N1CCC(Oc2cc(-c3nccs3)cc3cnc(Nc4ccc(N5CCOCC5)cc4)nc23)CC1 [Compound 553, 8-(1-isopropylpiperidin-4-yloxy)-N-(4-morpholinophenyl)-6-(thiazol-2-yl)quinazolin-2-amine]
5 to 10 | 5 to 10 | COc1cc(Nc2ncc3ccc(OC4CCN(C(C)C)CC4)cc3n2)cc(OC)c1 [Compound 565, N-(3,5-dimethoxyphenyl)-7-(1-isopropylpiperidin-4-yloxy)quinazolin-2-amine]
< 5 | < 5 | COc1cc(Nc2ncc3ccc(OC4CCN(C)CC4)cc3n2)cc(OC)c1 [Compound 566, N-(3,5-dimethoxyphenyl)-7-(1-methylpiperidin-4-yloxy)quinazolin-2-amine]
< 5 | < 5 | Fc1cccc(Nc2ncc3ccc(OC4CCNCC4)cc3n2)c1 [Compound 567, N-(3-fluorophenyl)-7-(piperidin-4-yloxy)quinazolin-2-amine]
< 5 | < 5 | Fc1cc(F)cc(Nc2ncc3ccc(OC4CCNCC4)cc3n2)c1 [Compound 568, N-(3,5-difluorophenyl)-7-(piperidin-4-yloxy)quinazolin-2-amine]
< 5 | < 5 | FC(F)(F)c1cccc(Nc2ncc3ccc(OC4CCNCC4)cc3n2)c1 [Compound 569, 7-(piperidin-4-yloxy)-N-(3-(trifluoromethyl)phenyl)quinazolin-2-amine]
< 5 | < 5 | CS(=O)(=O)c1cccc(Nc2ncc3ccc(OC4CCNCC4)cc3n2)c1 [Compound 570, N-(3-(methylsulfonyl)phenyl)-7-(piperidin-4-yloxy)quinazolin-2-amine]

EC50 [1] [µM] | IC50 [2] [µM] | SMILES
< 5 | < 5 | COc1cccc(Nc2ncc3ccc(OC4CCNCC4)cc3n2)c1 [Compound 571, N-(3-methoxyphenyl)-7-(piperidin-4-yloxy)quinazolin-2-amine]
< 5 | < 5 | c1cc(Nc2ncc3ccc(OC4CCNCC4)cc3n2)cc(N2CCOCC2)c1 [Compound 572, N-(3-morpholinophenyl)-7-(piperidin-4-yloxy)quinazolin-2-amine]
5 to 10 | < 5 | CC(C)N1CCC(Oc2ccc3cnc(Nc4cccc(F)c4)nc3c2)CC1 [Compound 573, N-(3-fluorophenyl)-7-(1-isopropylpiperidin-4-yloxy)quinazolin-2-amine]
< 5 | < 5 | CC(C)N1CCC(Oc2ccc3cnc(Nc4cc(F)cc(F)c4)nc3c2)CC1 [Compound 574, N-(3,5-difluorophenyl)-7-(1-isopropylpiperidin-4-yloxy)quinazolin-2-amine]
< 5 | < 5 | CC(C)N1CCC(Oc2ccc3cnc(Nc4cccc(C(F)(F)F)c4)nc3c2)CC1 [Compound 575, 7-(1-isopropylpiperidin-4-yloxy)-N-(3-(trifluoromethyl)phenyl)quinazolin-2-amine]
5 to 10 | < 5 | COc1cccc(Nc2ncc3ccc(OC4CCN(C(C)C)CC4)cc3n2)c1 [Compound 576, 7-(1-isopropylpiperidin-4-yloxy)-N-(3-methoxyphenyl)quinazolin-2-amine]
5 to 10 | < 5 | CC(C)N1CCC(Oc2ccc3cnc(Nc4ccc5nn[nH]c5c4)nc3c2)CC1 [Compound 577, N-(1H-benzo[d][1,2,3]triazol-6-yl)-7-(1-isopropylpiperidin-4-yloxy)quinazolin-2-amine]
5 to 10 | < 5 | CC(C)N1CCC(Oc2ccc3cnc(Nc4cccc(N5CCCC5)c4)nc3c2)CC1 [Compound 579, 7-(1-isopropylpiperidin-4-yloxy)-N-(3-(pyrrolidin-1-yl)phenyl)quinazolin-2-amine]
5 to 10 | 5 to 10 | CC(C)N1CCC(Oc2ccc3cnc(Nc4cccc(N5CCOCC5)c4)nc3c2)CC1 [Compound 580, 7-(1-isopropylpiperidin-4-yloxy)-N-(3-morpholinophenyl)quinazolin-2-amine]
< 5 | < 5 | CN1CCN(c2cccc(Nc3ncc4ccc(OC5CCNCC5)cc4n3)c2)CC1 [Compound 581, N-(3-(4-methylpiperazin-1-yl)phenyl)-7-(piperidin-4-yloxy)quinazolin-2-amine]
5 to 10 | < 5 | CC(C)N1CCC(Oc2ccc3cnc(Nc4cccc(N5CCN(C)CC5)c4)nc3c2)CC1 [Compound 582, 7-(1-isopropylpiperidin-4-yloxy)-N-(3-(4-methylpiperazin-1-yl)phenyl)quinazolin-2-amine]
5 to 10 | 10 to 25 | Cc1nc(Nc2ccc(S(N)(=O)=O)cc2)nc2cc(OCCC3CCNCC3)ccc12 [Compound 583]
< 5 | < 5 | c1ncc(-c2ccc(Nc3ncc4ccc(OC5CCNCC5)cc4n3)cc2)o1 [Compound 584, N-(4-(oxazol-5-yl)phenyl)-7-(piperidin-4-yloxy)qinazolin-2-amine]
< 5 | < 5 | O=C(c1ccc(Nc2ncc3ccc(OC4CCNCC4)cc3n2)cc1)N1CCOCC1 [Compound 585, morpholilno(4-(7-(piperidin-4-yloxy)quinazolin-2-ylamino)phenyl)methanone]
5 to 10 | 5 to 10 | NS(=O)(=O)c1ccc(Nc2ncc3c(-c4cn[nH]c4)ccc(OC4CCNCC4)c3n2)cc1 [Compound 586, 4-(8-(piperidin-4-yloxy)-5-(1H-pyrazol-4-yl)quinazolin-2-ylamino)benzensulfonamide]
< 5 | < 5 | COc1cc(Nc2ncc3ccc(OC4CCNCC4)cc3n2)cc(C(F)(F)F)c1 [Compound 587, N-(3-methoxy-5-(trifluoromethyl)phenyl)-7-(piperidin-4-yloxy)quinazolin-2-amine]
< 5 | < 5 | NC(=O)c1cc(Nc2ncc3ccc(OC4CCNCC4)cc3n2)cc(C(F)(F)F)c1 [Compound 588, 3-(7-(piperidin-4-yloxy)quinazolin-2-ylamino)-5-(trifluoromethyl)benzamide]
